Reference: patent US7405228B2, “Antibacterial cyano-(substituted)-methylenepiperidinophenyl oxazolidinones targeting multiple ribonucleoprotein sites” (Wockhardt Limited, priority 2002, dated 2008)
In brackets after ≈: the same amount, converted by molar mass. Like-named read-outs stand apart in the source and are kept apart here.

How the values were obtained:
S. pneumoniae ATCC 6303 = assay: MIC determination, linezolid sensitive S. pneumoniae ATCC 6303 (SPN 6303); assay type: cell-based; conditions: Streptococcus pneumoniae, ATCC6303
Description: (§1) Infecting doses of organisms given by intraperitoneal route in 5% hog gastric mucin were 10^3-10^4 CFU (colony forming units)/animal for SPN 6303 and 10^8 CFU/animal for MRSA-32. In case of MRSA-32, Linezolid was administered by oral route, 1 and 4 h post infection, BID (twice a day) for 1 day and for SPN 6303 BID for 2 days. […] MICs of Methicillin Resistant Staphylococcus aureus-32 Linezolid resistant (MRSA-32 LNZR), S. pneumoniae 744 Linezolid resistant (SPN 744 LNZR) and parent Linezolid sensitive strains MRSA-32 and SPN 6303 were determined for Linezolid by NCCLS agar dilution method.

[1] = system: S. pneumoniae ATCC 6303 LR; assay: MIC determination, linezolid-resistant mutant S. pneumoniae ATCC 6303 LR; assay type: cell-based; conditions: Streptococcus pneumoniae, ATCC6303, read-out: Linezolid MIC
S. aureus Smith = assay: MIC determination, S. aureus Smith; assay type: cell-based; conditions: Staphylococcus aureus, read-out: Linezolid MIC
S. aureus Smith LR = assay: MIC determination, linezolid-resistant mutant S. aureus Smith LR; assay type: cell-based; conditions: Staphylococcus aureus, read-out: Linezolid MIC
MRSA 032 = assay: MIC determination, linezolid sensitive MRSA 032 (MRSA-32); assay type: cell-based; conditions: Staphylococcus aureus
MRSA 032 LR = assay: MIC determination, linezolid-resistant mutant MRSA 032 LR; assay type: cell-based; conditions: Staphylococcus aureus, read-out: Linezolid MIC
S. aureus MRSA-32 LNZR = assay: MIC determination, linezolid resistant S. aureus MRSA-32 LNZR; assay type: cell-based; conditions: Staphylococcus aureus
SPN 744 LNZR [2] = assay: MIC determination, linezolid resistant SPN 744 LNZR; assay type: cell-based; conditions: Streptococcus pneumoniae
E. faecium 367 LNZR = assay: MIC determination, linezolid resistant E. faecium 367 LNZR; assay type: cell-based; conditions: Enterococcus faecium
E. faecium ATCC 19434 = assay: MIC determination, parent strain E. faecium ATCC 19434; assay type: cell-based; conditions: Enterococcus faecium, ATCC19434; Linezolid sensitive E. faecium ATCC 19434, NCCLS method
Description: E. faecium ATCC 19434 strain at a cell density of 10^6/ml was inoculated in Mueller Hinton broth medium containing Linezolid at a concentration of 5 and 7.5 mcg/ml. The stationary culture was incubated at 37° C. and inspected at every 24 hours to assess the formation of turbidity due to the onset of bacterial growth. […] A 50 microliter sample of turbid flask was plated on Mueller Hinton agar medium incorporated with linezolid at 7.5 mcg/ml. The agar plates were incubated for 48 hours at 37° C. for the formation of discrete colonies of linezolid-resistant strain of E. faecium (E. faecium 367 LNZR). MICs of resistant mutant E. faecium 367 LNZR and parent strain E. faecium ATCC 19434 were determined for linezolid by NCCLS method.

SPN 49619 = assay: MIC determination, linezolid sensitive SPN 49619; assay type: cell-based; conditions: Streptococcus pneumoniae; linezolid sensitive strain, Table 3
MRSA-32 = assay: ED50 in mouse systemic infection model, MRSA-32; assay type: in vivo; conditions: MRSA-32 parent strain
Description: as §1

SPN 6303 = assay: ED50 in mouse systemic infection model, SPN 6303; assay type: in vivo; conditions: SPN 6303 parent strain
Description: as §1

MRSA-32 LNZR = assay: ED50 in mouse systemic infection model, MRSA-32 LNZR; assay type: in vivo
SPN 744 LNZR [3] = assay: ED50 in mouse systemic infection model, SPN 744 LNZR; assay type: in vivo
[4] = system: Enterococcus faecalis 416 strain; assay: Killing effect study (bactericidal vs bacteriostatic activity); assay type: cell-based; conditions: initial count 10^6 CFU/ml
Description: The initial inoculum was adjusted to 10^6 CFU (colony forming units) per ml. The flasks were kept on shaker in close cabinet at 35° C. Aliquots were drawn at 112 hours and cell count was determined to assess the extent of loss in viability.

[5] = system: Enterococcus faecalis 416 strain; assay: Propensity to resistance development (resistant colonies per plate); assay type: cell-based; conditions: E. faecalis 416 at 10^8 CFU, compound concentration 5 mcg/ml, 48 hours at 35° C.
Description: Enterococcus faecalis 416 strain at 10^8 CFU density level was spirally plated on Mueller Hinton agar containing 5 mcg/ml each of linezolid and representative compound of the invention. Plates were incubated at 35° C. for 48 hours and number of resistant colonies developed in presence of respective compounds were counted by automated counter.

[6] = system: Enterococcus faecalis 416; assay: Mutant Prevention Concentration (MPC) determination; assay type: cell-based; parameters: unit not given here; conditions: E. faecalis 416, 10^9 CFU/plate, TSA, 48 hours at 35° C.
Description: Clinical isolate Enterococcus faecalis 416 was spirally plated on Tryptic Soya agar (TSA) plate containing various 2 fold dilutions each of a representative compound of the invention and Linezolid so as to give 10^9 CFU/plate. After incubation at 35° C. for 48 hours, the CFU on each plate was determined. MPC is defined as minimum concentration of drug that prevents mutant colonies on respective antibiotic containing plate.

CC(=O)NC[C@H]1CN(c2ccc(N3CCOCC3)c(F)c2)C(=O)O1 [Linezolid, reference compound]
MIC (S. pneumoniae ATCC 6303; S. pneumoniae ATCC 6303, Table 1, read-out: Linezolid MIC): 0.8 µg/mL (≈ 2.37 µM)
MIC (S. pneumoniae ATCC 6303; parent Linezolid sensitive SPN 6303, NCCLS agar dilution method, read-out: MIC): 0.8 µg/mL (≈ 2.37 µM)
MIC [1]: 25 µg/mL (≈ 74.1 µM)
MIC (S. aureus Smith): 1.56 µg/mL (≈ 4.62 µM)
MIC (S. aureus Smith LR): 50 µg/mL (≈ 148 µM)
MIC (MRSA 032): 1.56 µg/mL (≈ 4.62 µM)
MIC (MRSA 032; read-out: Linezolid MIC): 1.56 µg/mL (≈ 4.62 µM)
MIC (MRSA 032; read-out: MIC MRSA 32): 1.56 µg/mL (≈ 4.62 µM)
MIC (MRSA 032 LR): 25 µg/mL (≈ 74.1 µM)
MIC (S. aureus MRSA-32 LNZR): 50 µg/mL (≈ 148 µM)
MIC (S. aureus MRSA-32 LNZR; 24 h, read-out: MIC MRSA 32 LNZR): > 25 µg/mL
MIC (SPN 744 LNZR [2]): 25 µg/mL (≈ 74.1 µM)
MIC (SPN 744 LNZR [2]; read-out: MIC SPN744 LNZR): 25 µg/mL (≈ 74.1 µM)
MIC (E. faecium 367 LNZR): 25 µg/mL (≈ 74.1 µM)
MIC (E. faecium 367 LNZR; read-out: MIC E. faecium 367 LNZR): > 25 µg/mL
MIC (E. faecium ATCC 19434): 1.56 µg/mL (≈ 4.62 µM)
MIC (SPN 49619): 0.8 µg/mL (≈ 2.37 µM)
ED50 (MRSA-32): 5 mg/kg
ED50 (SPN 6303): 75 mg/kg
ED50 (MRSA-32 LNZR): 100 mg/kg
ED50 (SPN 744 LNZR [3]): > 200 mg/kg
Final Count (112 h) ([4]; E. faecalis 416, 5 mcg/ml compound, Table 4): 10^8 CFU/ml
final count after killing effect study ([4]; E. faecalis 416, 5 mcg/ml): 10^9 CFU/ml
No. of colonies/plate [5]: 1.2 × 10^2
MPC [6]: 12.5
